Assay results as given in patent US20240100031A1, “PHARMACEUTICAL COMPOSITION FOR PREVENTING OR TREATING VIRAL […] PIPERLONGUMINE-BASED COMPOUND AS ACTIVE INGREDIENT” (priority 2020, published 2024).

Test system: novel coronavirus (SARS-CoV-2)
Experiment: microbe, parasite or virus in culture
Format: cell-based
Conditions: for IC50: Severe acute respiratory syndrome coronavirus 2, Vero, 24 h, read-out: Infection inhibitory concentration IC50

| SMILES | IC50 [µM] | inhibition of viral infection compared with positive controls (in words) |
| --- | --- | --- |
| CCN(CC)CCCC(C)Nc1ccnc2cc(Cl)ccc12 (centres unmarked) [Chloroquine, reference compound] | 4.1 |  |
| COC(=O)c1cc(/C=C/C(=O)N2CCC=CC2=O)ccc1OC [Compound 1, (E)-methyl-2-methoxy-5-(3-oxo-3-(2-oxo-5,6-dihydropyridin-1(2H)-yl)prop-1-en-1-yl)benzoate] | 4.46 |  |
| COC(=O)c1cc(/C=C/C(=O)N2CCC=C(Cl)C2=O)ccc1OC [Compound 3, (E)-methyl-5-(3-(3-chloro-2-oxo-5,6-dihydropyridin-1(2H)-yl)-3-oxoprop-1-en-1-yl)-2-methoxybenzoate] | 2.01 | more remarkable effects than remdesivir |
| COC(=O)c1cc(/C=C/C(=O)N2CC=CC2=O)ccc1OC(C)=O [Compound 4, (E)-methyl-2-acetoxy-5-(3-oxo-3-(2-oxo-2,5-dihydro-1H-pyrrol-1-yl)prop-1-en-1-yl)benzoate] | 7.68 |  |
| COC(=O)c1cc(/C=C/C(=O)N2CCC=C(Br)C2=O)ccc1OC [Compound 9, (E)-methyl-5-(3-(3-bromo-2-oxo-5,6-dihydropyridin-1(2H)-yl)-3-oxoprop-1-en-1-yl)-2-methoxybenzoate] | 1.6 | more remarkable effects than remdesivir |
| COC(=O)c1cc(/C=C/C(=O)N2CCC=C(Br)C2=O)ccc1O [Compound 10, (E)-methyl-5-(3-(3-bromo-2-oxo-5,6-dihydropyridin-1(2H)-yl)-3-oxoprop-1-en-1-yl)-2-hydroxybenzoate] | 2.31 | more remarkable effects than remdesivir |
| COC(=O)c1cc(/C=C/C(=O)N2CCC=C(Br)C2=O)ccc1OC(C)=O [Compound 11, (E)-methyl-2-acetoxy-5-(3-(3-bromo-2-oxo-5,6-dihydropyridin-1(2H)-yl)-3-oxoprop-1-en-1-yl)benzoate] | 1.97 | more remarkable effects than remdesivir |
| COC(=O)c1cc(/C=C/C(=O)N2CCC=C(Cl)C2=O)ccc1O [Compound 12, (E)-methyl-5-(3-(3-chloro-2-oxo-5,6-dihydropyridin-1(2H)-yl)-3-oxoprop-1-en-1-yl)-2-hydroxybenzoate] | 2.63 | more remarkable effects than remdesivir |
| COC(=O)c1cc(/C=C/C(=O)N2CCC=C(Cl)C2=O)ccc1OC(C)=O [Compound 13, (E)-methyl-2-acetoxy-5-(3-(3-chloro-2-oxo-5,6-dihydropyridin-1(2H)-yl)-3-oxoprop-1-en-1-yl)benzoate] | 1.86 | more remarkable effects than remdesivir |
| O=C(/C=C/c1cccc([N+](=O)[O-])c1)N1CCC=C(Cl)C1=O [Compound 16, (E)-3-chloro-1-(3-(3-nitrophenyl)acryloyl)-5,6-dihydropyridin-2(1H)-one] | 4.19 |  |
| O=C(/C=C/c1cccc([N+](=O)[O-])c1)N1CCC=C(Br)C1=O [Compound 17, (E)-3-bromo-1-(3-(3-nitrophenyl)acryloyl)-5,6-dihydropyridin-2(1H)-one] | 5.34 |  |
| COc1cc(/C=C/C(=O)N2CCC=C(Cl)C2=O)cc(OC)c1OCc1nnc(-c2cc(Cl)cc(Cl)c2)o1 [Compound 19, (E)-3-chloro-1-(3-(4-((5-(3,5-dichlorophenyl)-1,3,4-oxadiazol-2-yl)methoxy)-3,5-dimethoxyphenyl)acryloyl)-5,6-dihydropyridin-2(1H)-one] | 4.12 |  |
| Cc1cccc(C)c1OCC(=O)N[C@@H](Cc1ccccc1)[C@@H](O)C[C@H](Cc1ccccc1)NC(=O)[C@H](C(C)C)N1CCCNC1=O [Lopinavir, lopinavir, reference compound] | 12.7 |  |
| CCC(CC)COC(=O)[C@H](C)N[P@](=O)(OC[C@H]1O[C@@](C#N)(c2ccc3c(N)ncnn23)[C@H](O)[C@@H]1O)Oc1ccccc1 [Remdesivir, remdesivir, reference compound] | 2.65 |  |
